Experimental data reported in ChEMBL document CHEMBL3867446, “Sulfoureido Lipopeptides from the Marine Sponge Discodermia kiiensis” (J Nat Prod, 2016).
pIC50: −log10 of the molar value.

Assay: Cytotoxicity against mouse P388 cells after 3 days by MTT assay
Format: functional, cell-based
Details: P388, 72 h

Compound	pIC50
CC/C=C1/NC(=O)/C=C/[C@H](C(C)C)OC(=O)C(C)(C)[C@H](C[C@H](/C=C/C=C/C/C=C\CCCC)OC)OC(=O)CNC(=O)[C@H](CNC(N)=O)NC(=O)CNC(=O)[C@@H](CCCNC(=O)NS(=O)(=O)O)NC1=O	4.52
CC/C=C1/NC(=O)/C=C/[C@H](C(C)C)OC(=O)C(C)(C)[C@H](C[C@H](/C=C/C=C/C/C=C\CCC(C)C)OC)OC(=O)CNC(=O)[C@H](CNC(N)=O)NC(=O)CNC(=O)[C@@H](CCCNC(=O)NS(=O)(=O)O)NC1=O	4.82
CC/C=C1/NC(=O)/C=C/[C@H]([C@@H](C)CC)OC(=O)C(C)(C)[C@H](C[C@H](/C=C/C=C/C/C=C\CCC(C)C)OC)OC(=O)CNC(=O)[C@H](CNC(N)=O)NC(=O)CNC(=O)[C@@H](CCCNC(=O)NS(=O)(=O)O)NC1=O	4.54
CC/C=C1/NC(=O)/C=C/[C@H](C(C)C)OC(=O)C(C)(C)[C@H](C[C@H](/C=C/C=C/C/C=C\CCC(C)C)OC)OC(=O)CNC(=O)[C@H](CNC(N)=O)NC(=O)CNC(=O)[C@@H](CCCNC(N)=O)NC1=O	4.44
